Measurements from ChEMBL document CHEMBL1671801, “Melampomagnolide B: a new antileukemic sesquiterpene” (Bioorg Med Chem, 2011).
Calls of active or inactive are those of the source.

Columns and labels:
[1] = system: AML; test: Cytotoxicity against human AML cells at 7.5 uM after 24 hrs using Annexin-V and 7-AAD staining by flow cytometry; format: functional, cell-based
[2] = system: AML; test: Inhibition of NF-kappaB activity in human AML cells assessed as phosphorylation of NF-kappaB p65 subunit at Ser-536 at 7.5 uM by immunoblotting; format: cell-based
[3] = biological target: T1, Inhibitor of nuclear factor kappa-B kinase subunit beta (Homo sapiens) (UniProt O14920); test: Binding affinity to IKK-beta activity in human AML cells after 4 hrs streptavidin beads pull-down assay; format: cell-based
T1 sequence (whole entry): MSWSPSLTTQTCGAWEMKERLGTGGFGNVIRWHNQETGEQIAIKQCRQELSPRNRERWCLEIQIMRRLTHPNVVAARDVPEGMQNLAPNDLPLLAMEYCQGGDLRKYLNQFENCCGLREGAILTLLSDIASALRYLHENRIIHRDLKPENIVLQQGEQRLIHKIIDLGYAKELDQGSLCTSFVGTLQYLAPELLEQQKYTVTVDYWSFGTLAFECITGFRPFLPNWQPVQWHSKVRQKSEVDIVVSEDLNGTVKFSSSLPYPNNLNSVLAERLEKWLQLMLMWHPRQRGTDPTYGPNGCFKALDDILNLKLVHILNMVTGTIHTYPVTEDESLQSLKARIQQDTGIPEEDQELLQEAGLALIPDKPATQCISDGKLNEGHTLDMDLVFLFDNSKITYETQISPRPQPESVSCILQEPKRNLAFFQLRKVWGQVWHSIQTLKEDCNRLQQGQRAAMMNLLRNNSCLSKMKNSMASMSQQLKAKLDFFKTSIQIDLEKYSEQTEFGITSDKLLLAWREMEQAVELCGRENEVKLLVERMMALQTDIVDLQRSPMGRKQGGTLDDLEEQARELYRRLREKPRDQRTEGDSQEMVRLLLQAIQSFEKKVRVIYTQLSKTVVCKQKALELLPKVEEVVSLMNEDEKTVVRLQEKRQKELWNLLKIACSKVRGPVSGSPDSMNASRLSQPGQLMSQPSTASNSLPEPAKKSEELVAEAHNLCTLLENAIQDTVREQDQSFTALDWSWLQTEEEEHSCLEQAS

[4] = system: AML; test: Cytotoxicity against human AML cells at 20 to 30 uM after 24 hrs using Annexin-V and 7-AAD staining by flow cytometry; format: functional, cell-based
[5] = system: AML; test: Inhibition of NF-kappaB activity in human AML cells assessed as phosphorylation of NF-kappaB p65 subunit at Ser-536 at 15 uM by immunoblotting; format: cell-based
[6] = system: AML; test: Binding affinity to NF-kappaB p65 activity in human AML cells after 4 hrs streptavidin beads pull-down assay; format: cell-based

Measured: Activity

C=C1C(=O)O[C@@H]2[C@H]3O[C@]3(C)CC/C=C(\CO)CC[C@@H]12
active: [1] | [2]

C=C1C(=O)O[C@@H]2[C@H]3O[C@]3(C)CC/C=C(\COC(=O)CCCCCCCCCCCNC(=O)CCCC[C@@H]3SC[C@@H]4NC(=O)N[C@@H]43)CC[C@@H]12
active: [3] | [4] | [5] | [6]
